Data as given in ChEMBL document CHEMBL4340548, “Pyridone-containing phenalenone-based photosensitizer working both under light and in the dark for photodynamic therapy” (Bioorg Med Chem, 2019).
Calls of active or inactive are those of the source. No cut-off for these calls is given here.

Columns and labels:
[1] = Induction of singlet oxygen generation in acetonitrile irradiated with blue light assessed as singlet oxygen quantum yield at 30 uM using ABDA by UV spectrophotometry; type: functional
[2] = Induction of singlet oxygen generation in water irradiated with blue light assessed as singlet oxygen quantum yield at 30 uM using ABDA by UV spectrophotometry; type: functional
HeLa [3] = test: Photodynamic cytotoxicity in human HeLa cells assessed as reduction in cell viability incubated in blue light for 5 mins every 1.5 hrs for 8 repeated cycles further incubation under dark for 24 hrs by MTT assay; type: functional; conditions: light or radiation study
[4] = Photostability in acetonitrile assessed as PPN-EPO formation at 50 uM irradiated with light for 2.5 hrs by UV spectrophotometry
HeLa [5] = test: Induction of ROS generation in human HeLa cells irradiated with blue light at 1 uM incubated for 30 mins by DCFH-DA dye-based confocal microscopic analysis; type: functional, cell-based
[6] = Induction of singlet oxygen generation at 50 uM under dark condition at 37 degC by ABDA based singlet oxygen trap assay; type: functional
HeLa [7] = test: Induction of ROS generation in human HeLa cells under dark condition at 1 uM incubated for 30 mins at 37 degC by DCFH-DA dye-based confocal microscopic analysis; type: cell-based; conditions: 0.5 h
[8] = Photostability in acetonitrile assessed as singlet oxygen formation by measuring pyridone moiety band at 50 uM at 37 degC irradiated with light for 2.5 hrs by UV spectrophotometry
[9] = Induction of singlet oxygen generation at 50 uM under irradiation at 20 degC for 5 mins and dark at 37 degC fro 30 mins for several cycles by ABDA based singlet oxygen trap assay; type: functional
[10] = Induction of singlet oxygen generation at 50 uM under blue light irradiation at 25 degC by ABDA based singlet oxygen trap assay; type: functional
HeLa [11] = test: Induction of apoptosis in human HeLa cells at 1 uM incubated for 3 hrs irradiated with blue light in presence of sodium azide by DAPI-Annexin V-PE staining based confocal microscopic analysis; type: functional, cell-based
[12] = Induction of singlet oxygen generation at 50 uM under blue light irradiation at 60 degC by ABDA based singlet oxygen trap assay; type: functional
HeLa [13] = test: Induction of apoptosis in human HeLa cells at 1 uM incubated for 3 hrs irradiated with blue light by DAPI-Annexin V-PE staining based confocal microscopic analysis; type: functional, cell-based
[14] = Induction of singlet oxygen generation at 50 uM under irradiation incubated for 15 mins by 1H-NMR spectroscopy; type: functional
HeLa [15] = test: Induction of ROS generation in human HeLa cells irradiated with blue light at 1 uM incubated for 30 mins in presence of sodium azide by DCFH-DA dye-based confocal microscopic analysis; type: functional, cell-based
[16] = Photostability in acetonitrile assessed as decrease in absorbance of pyridone moiety at 50 uM irradiated with light for 2.5 hrs by UV spectrophotometry

| Compound | Activity [1] | Activity [2] | CC50 (HeLa [3]) [nM] | Stability [4] | Activity (HeLa [5]) | Activity [6] | Activity (HeLa [7]) | Stability [8] | Activity [9] | Activity [10] | Activity (HeLa [11]) | Activity [12] | Activity (HeLa [13]) | Activity [14] | Activity (HeLa [15]) | Stability [16] |
| --- | --- | --- | --- | --- | --- | --- | --- | --- | --- | --- | --- | --- | --- | --- | --- | --- |
| O=C1C(c2ccc(CN3C(=O)C4C=CC3OO4)cc2)=Cc2cccc3cccc1c23 (centres undefined) | 0.71 | 0.16 | 71.5 |  |  |  |  |  |  |  |  |  |  |  |  |  |
| O=C1C(c2ccc(Cn3ccccc3=O)cc2)=Cc2cccc3cccc1c23 | 0.64 | 0.12 | 26.5 | Unstable | Active | Active | Non-Toxic | Stable | Active | inactive | inactive | Active | Active | Active | Active | Unstable |
